Source: patent publication US20170101407A1, “6-CHLORINE-SUBSTITUTED IMIDAZO[1,2-A]PYRIDINE CARBOXAMIDES AND THE USE THEREOF AS SOLUBLE GUANYLATE CYCLASE STIMULATORS” (Bayer Pharma Aktiengesellschaft, priority 2014, published 2017)

These compounds were tested on recombinant guanylate cyclase reporter cell line (assay: Effect on a recombinant guanylate cyclase reporter cell line). Conditions: in some cases mean values for individual determinations.
Format: cell-based
Procedure: B-2. Effect on a Recombinant Guanvlate Cyclase Reporter Cell Line
The cellular activity of the compounds according to the invention is determined using a recombinant guanylate cyclase reporter cell line, as described in F. Wunder et al., Anal. Biochem. 339, 104-112 (2005).
Representative MEC values (MEC=minimum effective concentration) for the compounds of the invention are shown in the table below (in some cases as mean values for individual determinations): […]

Compound | MEC (minimum effective concentration)
Cc1nc2c(OCc3c(F)cccc3F)cc(Cl)cn2c1C(=O)NCC(C)(N)CCF (single isomer, unassigned; enantiomer b) [Example 9, ent-N-(2-Amino-4-fluoro-2-methylbutyl)-6-chloro-8-[(2,6-difluorobenzyl)oxy]-2-methylimidazo[1,2-a]pyridine-3-carboxamide (enantiomer B)] | 0.1 µM
Cc1nc2c(OCc3c(F)cccc3F)cc(Cl)cn2c1C(=O)NCC(C)(N)CC(F)F (single isomer, unassigned; enantiomer a) [Example 5, ent-N-(2-Amino-4,4-difluoro-2-methylbutyl)-6-chloro-8-[(2,6-difluorobenzyl)oxy]-2-methylimidazo[1,2-a]pyridine-3-carboxamide (enantiomer A)] | 0.3 µM
Cc1nc2c(OCc3c(F)cccc3F)cc(Cl)cn2c1C(=O)NCC(C)(N)CCF (single isomer, unassigned; enantiomer a) [Example 8, ent-N-(2-Amino-4-fluoro-2-methylbutyl)-6-chloro-8-[(2,6-difluorobenzyl)oxy]-2-methylimidazo[1,2-a]pyridine-3-carboxamide (enantiomer A)] | 0.1 µM
Cc1nc2c(OCc3c(F)cccc3F)cc(Cl)cn2c1C(=O)NCC(C)(N)CC(F)F (single isomer, unassigned; enantiomer b) [Example 6, ent-N-(2-Amino-4,4-difluoro-2-methylbutyl)-6-chloro-8-[(2,6-difluorobenzyl)oxy]-2-methylimidazo[1,2-a]pyridine-3-carboxamide (enantiomer B)] | 0.3 µM
Cc1nc2c(OCc3c(F)cccc3F)cc(Cl)cn2c1C(=O)NCC(C)(N)CCC(F)(F)F (single isomer, unassigned; enantiomer b) [Example 2, ent-N-(2-Amino-5,5,5-trifluoro-2-methylpentyl)-6-chloro-8-[(2,6-difluorobenzyl)oxy]-2-methylimidazo[1,2-a]pyridine-3-carboxamide (enantiomer B)] | 0.3 µM
Cc1nc2c(OCc3c(F)cccc3F)cc(Cl)cn2c1C(=O)NCC(C)(N)CCF (racemic) [Example 7, rac-N-(2-Amino-4-fluoro-2-methylbutyl)-6-chloro-8-[(2,6-difluorobenzyl)oxy]-2-methylimidazo[1,2-a]pyridine-3-carboxamide (racemate)] | 0.1 µM
Cc1nc2c(OCc3c(F)cccc3F)cc(Cl)cn2c1C(=O)NCC(C)(N)CF (single isomer, unassigned; enantiomer b) [Example 1, ent-N-(2-Amino-3-fluoro-2-methylpropyl)-6-chloro-8-[(2,6-difluorobenzyl)oxy]-2-methylimidazo[1,2-a]pyridine-3-carboxamide (enantiomer B)] | 0.3 µM
Cc1nc2c(OCc3c(F)cccc3F)cc(Cl)cn2c1C(=O)NCC(C)(N)CCCF (single isomer, unassigned; enantiomer a) [Example 3, ent-N-(2-Amino-5-fluoro-2-methylpentyl)-6-chloro-8-[(2,6-difluorobenzyl)oxy]-2-methylimidazo[1,2-a]pyridine-3-carboxamide (enantiomer A)] | 0.1 µM
Cc1nc2c(OCc3c(F)cccc3F)cc(Cl)cn2c1C(=O)NCC(C)(N)CCCF (single isomer, unassigned; enantiomer b) [Example 4, ent-N-(2-Amino-5-fluoro-2-methylpentyl)-6-chloro-8-[(2,6-difluorobenzyl)oxy]-2-methylimidazo[1,2-a]pyridine-3-carboxamide (enantiomer B)] | 0.1 µM
